Reference: ChEMBL document CHEMBL1150911, “New ceramide from marine sponge Haliclona koremella and related compounds as antifouling substances against macroalgae” (J Nat Prod, 1998)
The source made the active and inactive calls. The rule behind the calls is not given here.

Experiments:
[1] = tested on: Ulva; assay: Antifouling activity against Ulva conglobata spores assessed as germination and attachment rate at 5 ppm; type: functional
[2] = tested on: Brachiomonas submarina; assay: Antimicrobial activity against […] at 5 ppm; type: functional, organism-based
[3] = tested on: Prorocentrum micans; assay: Antimicrobial activity against Prorocentrum micans at 5 ppm; type: functional, organism-based
[4] = tested on: Skeletonema costatum; assay: Antimicrobial activity against Skeletonema costatum at 5 ppm; type: functional, organism-based
[5] = tested on: Anagnostidinema amphibium; assay: Antimicrobial activity against Oscillatoria amphibia at 5 ppm; type: functional, organism-based
[6] = tested on: Ulva; assay: Toxicity against Ulva conglobata at 50 ppm; type: organism-based; details: in vivo
[7] = tested on: Brachiomonas submarina; assay: Antimicrobial activity against […] at 1 ppm; type: functional, organism-based
[8] = tested on: Anagnostidinema amphibium; assay: Antimicrobial activity against Oscillatoria amphibia at 1 ppm; type: functional, organism-based
[9] = tested on: Ulva; assay: Antifouling activity against Ulva conglobata spores assessed as germination and attachment rate at 1 ppm; type: functional

## CCCCCCCCCCCCC/C=C/[C@@H](O)[C@H](CO)N(C)C
[1]
  Activity: Active
[2]
  Activity: Active
[3]
  Activity: Active
[4]
  Activity: Active
[5]
  Activity: Active

## CCCCCCCCCCCCCCCCCCCCCC(=O)N[C@@H](CO)[C@H](O)/C=C/CCCCCCCCCCC(C)C
[6]
  Activity: Non-toxic

## CCCCCCCCCCCCCCC[C@@H](O)[C@@H](N)CO
[7]
  Activity: Active
[2]
  Activity: Active
[3]
  Activity: Active
[8]
  Activity: Active
[5]
  Activity: Active

## CCCCCCCCCCCCC/C=C/[C@@H](O)[C@H](CO)NC(=O)CCCCCCC
[6]
  Activity: Non-toxic

## CCCCCCCCCCCCC/C=C/[C@@H](O)[C@@H](N)CO [SPHINGOSINE]
[9]
  Activity: 15%
[1]
  Activity: 0%
[2]
  Activity: Active
[3]
  Activity: Active
[4]
  Activity: Active
[5]
  Activity: Active

## CCCCCCCCCCCCC/C=C/[C@@H](O)[C@H](CO)NC(C)=O
[6]
  Activity: Non-toxic

## CCCCCCCCCCCCC/C=C/[C@@H](O)[C@H](CO)NC(=O)CCCCC
[6]
  Activity: Non-toxic

## CCCCCCCCCCCCC/C=C/[C@@H](O)[C@H](CO)NC(=O)CCCCCCCCCCCCCCC
[6]
  Activity: Non-toxic
